Assay results: ChEMBL document CHEMBL3272194, “Antiinflammatory activity of some 2,3-dihydrobenzofuran-5-acetic acids and related compounds” (J Med Chem, 1976)

How the values were obtained:
Rattus norvegicus [1] = assay: Antiinflammatory activity in Wistar rat assessed as reduction in carrageenan-induced paw edema at 20 mg/kg, po treated 2 hrs before carrageenan challenge measured after 3 hrs; type: functional
Rattus norvegicus [2] = assay: Antiinflammatory activity in Wistar rat assessed as reduction in carrageenan-induced paw edema at 100 mg/kg, po treated 2 hrs before carrageenan challenge measured after 3 hrs; type: functional
Rattus norvegicus [3] = assay: Toxicity in po dosed Wistar rat assessed as gastric irritation at 20 to 100 mg/kg, po; type: organism-based, Stomach; design: dose 20-100 mg/kg, route oral; conditions: in vivo
Rattus norvegicus [4] = assay: Antiinflammatory activity in po dosed Wistar rat assessed as reduction in carrageenan-induced paw edema treated 2 hrs before carrageenan challenge measured after 3 hrs; type: functional
[5] = Toxicity in po dosed Wistar rat; type: organism-based; conditions: in vivo
Rattus norvegicus [6] = assay: Antiinflammatory activity in Wistar rat assessed as reduction in carrageenan-induced paw edema at 10 mg/kg, po treated 2 hrs before carrageenan challenge measured after 3 hrs; type: functional
Rattus norvegicus [7] = assay: Toxicity in po dosed Wistar rat assessed as gastric irritation at 10 to 50 mg/kg, po; type: organism-based, Stomach; design: dose 10-50 mg/kg, route oral; conditions: in vivo
Rattus norvegicus [8] = assay: Antiinflammatory activity in Wistar rat assessed as reduction in carrageenan-induced paw edema at 50 mg/kg, po treated 2 hrs before carrageenan challenge measured after 3 hrs; type: functional

SMILES | inhibition in vivo at 20 mg/kg (Rattus norvegicus [1]) | inhibition in vivo at 100 mg/kg (Rattus norvegicus [2]) | Activity (Rattus norvegicus [3]) | ED50 (Rattus norvegicus [4]) | LD50 [5] | inhibition in vivo at 10 mg/kg (Rattus norvegicus [6]) | Activity (Rattus norvegicus [7]) | inhibition in vivo at 50 mg/kg (Rattus norvegicus [8])
CC1Cc2cc(CC(N)=O)cc(Cl)c2O1 (configuration not stated) | 2% | 17% | Toxic | – | – | – | – | –
CC(C(=O)O)c1cc(Cl)c2c(c1)CC(C)(C)O2 (configuration not stated) | 45% | 58% | Toxic | 45 mg/kg | 720 mg/kg | – | – | –
CC1Cc2cc(C(C)C(=O)O)cc(Cl)c2O1.NC1CCCCC1 (configuration not stated) | 35% | 57% | Toxic | – | – | – | – | –
CC1(C)Cc2cc(CC(=O)NO)cc(Cl)c2O1 | 7% | 13% | Toxic | – | – | – | – | –
CC1(C)Cc2cc(CC(N)=O)ccc2O1 | 15% | 20% | Toxic | – | – | – | – | –
CC1(C)Cc2cc(CC(N)=O)cc(Cl)c2O1 | 25% | 31% | Toxic | – | – | – | – | –
CC1(C)Cc2cc(C(=O)/C=C/C(=O)O)cc(Cl)c2O1 | 9% | 3% | Toxic | – | – | – | – | –
CCCCC1C(=O)N(c2ccccc2)N(c2ccccc2)C1=O [PHENYLBUTAZONE] | – | – | – | – | – | 24% | Toxic | 51%
CC1(C)Cc2cc(CCCC(=O)O)cc(Cl)c2O1 | 32% | 32% | Toxic | – | – | – | – | –
CC1Cc2cc(CC(=O)O)cc(Cl)c2O1 (configuration not stated) | 20% | 27% | Toxic | – | – | – | – | –
CC1(C)Cc2cc(CC(=O)O)cc(Cl)c2O1 | 30% | 37% | Toxic | – | – | – | – | –
CC1Oc2c(Cl)cc(CC(=O)O)cc2C1C.NC1CCCCC1 (configuration not stated) | 24% | 30% | Toxic | – | – | – | – | –
CC1(C)Cc2cc(CC(=O)O)ccc2O1 | 25% | 32% | Toxic | – | – | – | – | –
CC1(C)Cc2cc(CC(=O)NO)ccc2O1 | 5% | 9% | Toxic | – | – | – | – | –
CC1(C)Cc2cc(C(=O)CCC(=O)O)cc(Cl)c2O1 | 24% | 37% | Toxic | – | – | – | – | –
